# According to patent publication US10828315B2 (Madrigal Pharmaceuticals, Inc., priority 2013, dated 2020):
# “And” between values parts separate entries of the source, which are not always exact repeats. Identical values can stand only once. Like-named read-outs stand apart in the source and are kept apart here.
# Legend:
# [1] = system: HER2; assay: HER2 degradation in BT-474 cells (Example 3, Methods 1 and 2); format: cell-based, human
# Description: This example illustrates how a HER2 degradation assay may be used as a test to determine and select Hsp90-targeting moieties suitable for use in SDC-TRAPs of the invention, and further illustrates the ability of SDC-TRAPs to target cells preferentially expressing Hsp90. Such a test may further be used to determine the Hsp90 binding ability of SDC-TRAPs of the invention, as well as through competitive binding assays and cell-based Hsp90 client protein degradation assays known in the art.
# After treatment, each cytoplasmic sample is prepared from 1×10^6 cells by incubation of cell lysis buffer (#9803, Cell Signaling Technology) on ice for 10 minutes. The resulting supernatant used as the cytosol fractions is dissolved with sample buffer for SDS-PAGE and run on a SDS-PAGE gel, blotted onto a nitrocellulose membrane by using semi-dry transfer. Non-specific binding to nitrocellulose is blocked with 5% skim milk in TBS with 0.5% Tween at room temperature for 1 hour, then probed with anti-HER2/ErB2 mAb (rabbit IgG, #2242, Cell Signaling) and anti-Tubulin (T9026, Sigma) as housekeeping control protein. HRP-conjugated goat anti-rabbit IgG (H+L) and HRP-conjugated horse anti-mouse IgG (H+L) are used as secondary Ab (#7074#7076, Cell Signaling) and LumiGLO reagent, 20× Peroxide (#7003, Cell Signaling) is used for visualization. The Hsp90 client protein HER2 is degraded when cells are treated with Hsp90-targeting moieties or SDC-TRAPs of the invention.
# BT-474 cells are plated in the interior 60 wells of a 96 well black clear bottom plate (20,000 cells/well) in DMEM medium, with DMEM media in the surrounding 36 wells, and incubated at 37° C. with 5% CO2 overnight. On the second day, concentration response curve source plates are produced (10 point, 3-fold dilution of compounds in DMSO) followed by a 1:30 dilution in an intermediate dilution plate containing DMEM. Compound is transferred from the intermediate plate to the cell plate at a dilution of 1:10. The cells are then incubated at 37° C. with 5% CO2 for 24 hours.
# Cells are then fixed in 4% phosphate-buffered paraformaldehyde for 30 minutes at room temperature and then permeabilized by washing five times with 0.1% Triton X-100 in PBS for 5 minutes at room temperature on a shaker. […] Cells are washed five times with 0.1% Tween-20 in PBS for 5 minutes at room temperature on a shaker and incubated with fluorescently-labeled secondary antibody (LI-COR, #926-32211) diluted 1:1000 in blocking buffer, and DRAQ5 nuclear stain (Biostatus Limited, # DRAQ5) diluted 1:10,000, at room temperature on a shaker for 1 hour. Cells are washed 5 times with 0.1% Tween-20 in PBS for 5 minutes at room temperature on a shaker and imaged on a LI-COR Odyssey imaging station. The raw data is normalized to DRAQ5 and the HER2 EC50 is calculated using XLfit™.
# [2] = system: HER2; assay: HER2 degradation assay with BT-474 cell line (Example 12, FACS); format: cell-based, human
# [3] = system: human breast cancer cell line BT-474; assay: Cytotoxicity assay (CellTiter-Glo, 72 h), BT-474; format: cell-based; conditions: read-out: Cytotoxicity (IC50, nM) BT-474
# Description: (§1) Cytotoxicity of SDC-TRAP molecules was determined in three cancer cell lines. […] 80 μL of CellTiter-Glo was added to each well, followed by room temperature incubation in the dark for 15 minutes. Cell was determined by luminescence. IC50 was calculated using XLfit™ software.
# [4] = system: human urinary bladder cancer cell line RT-112; assay: Cytotoxicity assay (CellTiter-Glo, 72 h), RT-112; format: cell-based; conditions: read-out: Cytotoxicity (IC50, nM) RT-112
# Description: as §1
# [5] = system: human urinary bladder cancer cell line SW780; assay: Cytotoxicity assay (CellTiter-Glo, 72 h), SW780; format: cell-based; conditions: read-out: Cytotoxicity (IC50, nM) SW-780
# Description: as §1
# [6] = Artificial membrane permeability assay (PAMPA); conditions: incubation 5 h, first table
# [7] = Mouse plasma stability protocol, up to 1 h (Examples 16-18)
# Description: (§2) 150 ng/mL solution of SDC-TRAP-0002 in methanol was prepared using the internal standard spiking solution. This solution was used to precipitate all plasma samples in the study. 200 μL was pipetted into a 96 deepwell plate over dry ice. 10 μL of 1 mM stock in DMSO was added to a 1.5 mL microfuge tube, then 990 μL of plasma. Samples were mixed by vortex, then 50 μL of each sample was added in triplicate to a 96-well plate containing internal standard solution. This was designated the 0 hour time point sample. 250 μL of the remaining plasma sample was added to each of four 96 deepwell plates—one per time point. Samples were incubated at 37° C. with gentle shaking for 0.25, 0.5, and 1 hour. After each time point, one plate of each sample was removed from the shaker and placed on wet ice for approximately 2 minutes. 50 μL at plasma aliquots (in triplicate) were added to the deepwell plate containing internal standard solution. After the last time point was extracted, the 96 deepwell plate was vortexed, then centrifuged at 2-8° C. 150 μL of supernatant was collected and 25 μL at of water was added. Samples were mixed and analyzed by LC-MS/MS.
# (§3) 990 μL mouse plasma aliquots from a common stock were spiked with 10 μL of 1 mM stock of one of seven SDC-TRAP samples identified in the table below. Each sample was mixed and divided into 250 μL aliquots, each representing time points 0, 15 minutes, 30 minutes or 1 hour. At the prescribed time point, 3×50 μL samples were each mixed with 200 μL of methanol containing internal standard and held on dry ice until all time point samples were extracted. The samples collectively were vortex mixed for 1.5 minutes at 1500 rpm, then centrifuged at 4400 rpm for 10 minutes at 8° C.
# [8] = mouse, plasma, 1 h
# Description: as §2, §3
# [9] = % Remaining of parent after 1 h incubation in mouse plasma at 37° C. (10 μM)
# [10] = Tissue Distribution Data for SDC-TRAP-0098, Time (h) 0.083
# [11] = Tissue Distribution Data for SDC-TRAP-0098, Time (h) 1
# [12] = Tissue Distribution Data for SDC-TRAP-0098, Time (h) 6
# [13] = Tissue Distribution Data for SDC-TRAP-0098, Time (h) 24
smiles,measurement,setting,value
"CC(C)c1cc(-c2nnc(O)n2-c2ccc3c(ccn3CCN(C)C(=O)CCCc3nc4cc(N(CCCl)CCCl)ccc4n3C)c2)c(O)cc1O [SDC-TRAP-0039, (5-(bis(2-chloroethyl)amino)-1-methyl-1H-benzo[d]imidazol-2-yl)-N-(2-(5-(3-(2,4-dihydroxy-5-isopropylphenyl)-5-hydroxy-4H-1,2,4-triazol-4-yl)-1H-indol-1-yl)ethyl)-N-methylbutanamide]",IC50,[1],2940 nM
same,IC50,"[2]; BT-474 cells, overnight",2920 nM
"CCNC(=O)c1nnc(-c2cc(C(C)C)c(O)cc2O)n1-c1ccc2c(c1)CN(Cc1cc(OC)c(OC(=O)Nc3cccc4c3CN(C3CCC(=O)NC3=O)C4=O)c(OC)c1)C2 (centres unmarked) [SDC-TRAP-0196, 4-((5-(3-(2,4-dihydroxy-5-isopropylphenyl)-5-(ethylcarbamoyl)-4H-1,2,4-triazol-4-yl)isoindolin-2-yl)methyl)-2,6-dimethoxyphenyl (2-(2,6-dioxopiperidin-3-yl)-1-oxoisoindolin-4-yl)carbamate]",IC50,[2],89 nM
same,IC50,"[3]; BT-474, 72 h",17 nM
same,IC50,"[4]; RT-112, 72 h",31 nM
same,IC50,"[5]; SW780, 72 h",> 10000 nM
same,Mass Retention,[6],22.3%
same,% Remaining (1 h),[7]; [9],66.2%
"CCNC(=O)c1nnc(-c2cc(C(C)C)c(O)cc2O)n1-c1ccc(C(=O)N2CCN(c3cc(C)c(OC(=O)Nc4cccc5c4CN(C4CCC(=O)NC4=O)C5=O)c(C)c3)CC2)cc1 (centres unmarked) [SDC-TRAP-0178, 4-(4-(4-(3-(2,4-dihydroxy-5-isopropylphenyl)-5-(ethylcarbamoyl)-4H-1,2,4-triazol-4-yl)benzoyl)piperazin-1-yl)-2,6-dimethylphenyl (2-(2,6-dioxopiperidin-3-yl)-1-oxoisoindolin-4-yl)carbamate]",IC50,[2],170 nM and 91 nM
same,IC50,"[2]; BT-474 cells, overnight",91 nM
same,IC50,"[3]; BT-474, 72 h",37 nM
same,IC50,"[4]; RT-112, 72 h",29 nM
same,IC50,"[5]; SW780, 72 h",> 10000 nM
same,Plasma Conc.,"after SDC-TRAP-0178, 1 h",217000 nM
same,Tumor Conc.,"after SDC-TRAP-0178, 1 h",12.8 nmol/g of tissue
same,Tumor/Plasma Ratio,"after SDC-TRAP-0178, 1 h",0.0589
same,Plasma Conc.,"after SDC-TRAP-0178, 6 h",4510 nM
same,Tumor Conc.,"after SDC-TRAP-0178, 6 h",7.17 nmol/g of tissue
same,Tumor/Plasma Ratio,"after SDC-TRAP-0178, 6 h",1.59
same,Plasma Conc.,"after SDC-TRAP-0178, 24 h",28 nM
same,Tumor Conc.,"after SDC-TRAP-0178, 24 h",2.81 nmol/g of tissue
same,Tumor/Plasma Ratio,"after SDC-TRAP-0178, 24 h",100
same,Plasma Conc.,"after SDC-TRAP-0178, 48 h",241 nM
same,Tumor Conc.,"after SDC-TRAP-0178, 48 h",1.01 nmol/g of tissue
same,Tumor/Plasma Ratio,"after SDC-TRAP-0178, […]",0.0179
same,% Remaining (1 h),[7]; [9],82.0%
same,% Remaining (1 h),"[7]; mouse plasma, 37° C., 10 μM",82.0%
"CC(C)c1cc(-c2nnc(O)n2-c2ccc(CN3CCN(C(=O)c4ccc(CCc5c[nH]c6nc(N)[nH]c(=O)c56)cc4)CC3)cc2)c(O)cc1O [SDC-TRAP-0068, 2-amino-5-(4-(4-(4-(3-(2,4-dihydroxy-5-isopropylphenyl)-5-hydroxy-4H-1,2,4-triazol-4-yl)benzyl)piperazine-1-carbonyl)phenethyl)-3H-pyrrolo[2,3-d]pyrimidin-4(7H)-one]",IC50,"[3]; BT-474, 72 hours",70 nM
same,IC50,"[4]; RT-112, 72 hours",74 nM
same,IC50,"[5]; SW780, 72 hours",202 nM
same,% Remaining (1 h),[8]; 10 µM,96.5%
same,% Remaining (1 h),[8]; 10 μM,96.5%
"Nc1cccc2c1CN(C1CCC(=O)NC1=O)C2=O (centres unmarked) [Lenalidomide, lenalidomide, reference compound]",IC50,"[3]; BT-474, 72 hours",> 10000 nM
same,IC50,"[4]; RT-112, 72 hours",> 10000 nM
same,IC50,"[5]; SW780, 72 hours",> 10000 nM
same,Tumor Conc.,"female, SCID, mouse, in vivo, 24 h",0.0574 nmol/g of tissue
same,Tumor Conc.,"female, SCID, mouse, in vivo, 48 h",0.0143 nmol/g of tissue
same,Plasma Conc.,"mouse, in vivo",BQL
same,Tumor Conc.,"mouse, in vivo",BQL
same,Mass Retention,[6],26.0%
"CCc1c2c(nc3ccc(O)cc13)-c1cc3c(c(=O)n1C2)COC(=O)C3(CC)OC(=O)N(C)CCn1ccc2cc(-n3c(O)nnc3-c3cc(C(C)C)c(O)cc3O)ccc21 (centres unmarked) [SDC-TRAP-0038, 4,11-diethyl-9-hydroxy-3,14-dioxo-3,4,12,14-tetrahydro-1H-pyrano[3′,4′:6,7]indolizino[1,2-b]quinolin-4-yl (2-(5-(3-(2,4-dihydroxy-5-isopropylphenyl)-5-hydroxy-4H-1,2,4-triazol-4-yl)-1H-indol-1-yl)ethyl)(methyl)carbamate]",IC50,[1],> 5000 nM
same,IC50,[2],> 5000 nM
"C=CCNC1=C2C[C@@H](C)C[C@H](OC)[C@H](O)[C@@H](C)/C=C(\C)[C@H](OC(N)=O)[C@@H](OC)/C=C\C=C(/C)C(=O)NC(=CC1=O)C2=O [17-AAG, reference compound]",degradation of HER2 (western blot),"[1]; 0.5 μM, overnight",partial degradation of HER2
"CC(C)c1cc(-c2nnc(O)n2-c2ccc3c(ccn3CCOCCN(C)C(=O)CCCc3nc4cc(N(CCCl)CCCl)ccc4n3C)c2)c(O)cc1O [SDC-TRAP-0040, 4-(5-(bis(2-chloroethyl)amino)-1-methyl-1H-benzo[d]imidazol-2-yl)-N-(2-(2-(5-(3-(2,4-dihydroxy-5-isopropylphenyl)-5-hydroxy-4H-1,2,4-triazol-4-yl)-1H-indol-1-yl)ethoxy)ethyl)-N-methylbutanamide]",IC50,[1],4740 nM
same,IC50,"[2]; BT-474 cells, overnight",4740 nM
"COc1ccc(-c2cnoc2-c2cc(OC)c(OC)c(OC)c2)cc1OC(=O)N1CCN(Cc2ccc(-n3c(O)nnc3-c3cc(C(C)C)c(O)cc3O)cc2)CC1 [SDC-TRAP-0098, 2-Methoxy-5-(5-(3,4,5-trimethoxyphenyl)isoxazol-4-yl)phenyl-4-(4-(3-(2,4-dihydroxy-5-isopropylphenyl)-5-hydroxy-4H-1,2,4-triazol-4-yl)benzyl) piperazine-1-carboxylate]",IC50,[2],232 nM
same,IC50,"[3]; BT-474, 72 h",41 nM
same,IC50,"[4]; RT-112, 72 h",22 nM
same,IC50,"[5]; SW780, 72 h",257 nM
same,Tumor Conc.,[10],5.02 nmol/g of tissue
same,Tumor/Plasma Ratio,[10],0.01
same,Tumor Conc.,[11],4.62 nmol/g of tissue
same,Tumor/Plasma Ratio,[11],0.62
same,Tumor Conc.,[12],3.18 nmol/g of tissue
same,Tumor/Plasma Ratio,[12],8.22
same,Tumor Conc.,[13],0.920 nmol/g of tissue
same,Tumor/Plasma Ratio,[13],300
same,Tumor Conc.,"Tissue Distribution Data for SDC-TRAP-0098, Time (h) 48",0.182 nmol/g of tissue
same,% Remaining (1 h),[7]; [9],96.0%
same,% Remaining (1 h),"[7]; mouse plasma, 1 h",96.0%
"CC(C)c1cc(-c2nnc(O)n2-c2ccc(CN3CCN(C(=O)ONC(=O)CCCCCCC(=O)Nc4ccccc4)CC3)cc2)c(O)cc1O [SDC-TRAP-0117, N1-((4-(4-(3-(2,4-dihydroxy-5-isopropylphenyl)-5-hydroxy-4H-1,2,4-triazol-4-yl)benzyl)piperazine-1-carbonyl)oxy)-N8-phenyloctanediamide]",IC50,"[3]; BT-474, 72 hours",452 nM
same,IC50,"[4]; RT-112, 72 hours",152 nM
same,IC50,"[5]; SW780, 72 hours",284 nM
same,% Remaining (1 h),[8]; 10 µM,3.97%
"CC(C)c1cc(-c2nnc(O)n2-c2ccc(CN3CCN(C(=O)CCCc4nc5cc(N(CCCl)CCCl)ccc5n4C)CC3)cc2)c(O)cc1O [SDC-TRAP-0069, 4-(5-(bis (2-chloroethyl)amino)-1-methyl-1H-benzo[d]imidazol-2-yl)-1-(4-(4-(3-(2,4-dihydroxy-5-isopropylphenyl)-5-hydroxy-4H-1,2,4-triazol-4-yl)benzyl)piperazin-1-yl)butan-1-one]",IC50,"[2]; BT-474 cells, overnight",1230 nM
same,IC50,"[3]; BT-474, 72 h",914 nM
same,IC50,"[4]; RT-112, 72 h",909 nM
same,IC50,"[5]; SW780, 72 h",1340 nM
